Test results taken from article PMC8348686, “The Pharmacological Profile of Second Generation Pyrovalerone Cathinones and Related Cathinone Derivative” (International Journal of Molecular Sciences, 2021).
“Also recorded” adds a separate entry of the source.

Molecular target: hNET (Homo sapiens, UniProt P23975)
Assay: Transporter-mediated monoamine efflux, [3H]-NE preloaded HEK293 cells
Assay type: cell-based
Parameters: expressed in transfected cells; host or cells: HEK293
Conditions: 100 μM of drug, 45 min, HEK293 hNET preloaded with [3H]-NE; data for some pyrovalerones adapted from [13]
Description: Monoamine efflux was assessed using human embryonic kidney 293 (HEK293) cells (Invitrogen, Zug, Switzerland) stably transfected with the human norepinephrine (hNET), dopamine (hDAT), or serotonin (hSERT) uptake transporters. In summary, the cells were seeded in poly-D-lysine coated XF24 cell culture microplates (Seahorse Biosciences, North Billerica, MA, USA) and cultured overnight at a concentration of 100,000 cells per well.
The cells were then exposed to Krebs–HEPES release buffer (85 μL/well) comprised of 130 mM NaCl, 1.3 mM KCl, 2.2 mM CaCl2, 1.2 mM MgSO4, 1.2 mM KH2PO4, 10 mM HEPES, and 10 mM D-glucose at a pH of 7.5, which also contained 10 nM radiolabelled neurotransmitter ([^3H]-5-HT for SERT, [^3H]-DA for DAT or [^3H]-NE for NET), 1 μM unlabelled neurotransmitter (DA or NE, only), 10 μM pargyline, and 0.2 mg/mL of ascorbic acid. This enabled the loading of the cells with their respective neurotransmitters via the uptake transporters. Afterwards, the release buffer was replaced by fresh buffer to wash the cells twice and the cells were then incubated for 15 min (DAT and SERT) or 45 min (NET) to 100 μM of test drugs dissolved in 1 mL of Krebs–HEPES buffer while shaking at 300 rpm and 37 °C. Termination of the release reaction occurred by removing the buffer from the cells and washing them with ice-cold buffer. Next, 50 μL of lysis buffer was added to the cells for 1 h in order to lyse the cells. Thereafter, 40 μL of the lysed cell mixture was transferred into scintillation vials (Perkin–Elmer, Schwerzenbach, Switzerland) containing 3 mL of scintillation fluid (Ultimagold, Perkin–Elmer, Schwerzenbach, Switzerland) and measured using liquid scintillation (as previously described in Section 2.2).
To quantify the “pseudo efflux” caused by the non-transporter mediated monoamine release and successive reuptake inhibition, each monoamine efflux experiment included a control where the cells were exposed to each respective transporter blocker (nisoxetine for NET, mazindol for DAT, and citalopram for SERT). The radioactivity inside the cells without any drug was set as 100%. The nonspecific release was subtracted from the total observed release at 100 μM of each examined drug to calculate the specific transporter mediated release. One single concentration of the test drugs was used (100 μM) and release exposure durations were set based on previously evaluated kinetics of the release-over-time curves.
An ANOVA followed by a Holm–Sidak test was conducted to compare each drug’s specific transporter-mediated efflux based on at least three independent experiments to the control condition.

hNET, sequence (P23975 whole entry): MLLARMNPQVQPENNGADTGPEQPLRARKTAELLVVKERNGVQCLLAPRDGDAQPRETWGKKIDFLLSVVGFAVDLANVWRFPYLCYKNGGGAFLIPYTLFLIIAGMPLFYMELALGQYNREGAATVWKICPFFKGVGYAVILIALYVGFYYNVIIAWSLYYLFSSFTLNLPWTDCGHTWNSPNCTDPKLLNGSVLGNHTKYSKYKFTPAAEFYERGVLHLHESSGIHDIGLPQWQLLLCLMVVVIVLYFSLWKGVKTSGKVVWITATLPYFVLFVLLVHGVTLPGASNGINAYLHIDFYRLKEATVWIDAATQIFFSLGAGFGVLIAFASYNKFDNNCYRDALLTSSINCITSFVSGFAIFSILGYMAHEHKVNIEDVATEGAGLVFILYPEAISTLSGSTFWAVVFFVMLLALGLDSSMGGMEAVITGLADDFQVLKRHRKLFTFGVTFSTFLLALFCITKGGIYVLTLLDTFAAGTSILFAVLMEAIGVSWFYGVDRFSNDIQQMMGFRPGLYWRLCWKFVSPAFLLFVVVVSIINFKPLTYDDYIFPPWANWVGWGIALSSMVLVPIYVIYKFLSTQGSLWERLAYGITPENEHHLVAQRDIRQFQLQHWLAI

Row | Compound | Transporter-mediated monoamine efflux (NE) vs nisoxetine
1 | CCC(C(=O)c1ccc(F)cc1)N1CCCC1 (stereo not drawn) [4F-PBP, 4-fluoro-α-pyrrolidinobutiophenone] | did not induce any monoamine efflux
2 | CCCCC(C(=O)c1ccc(C)cc1)N1CCCC1 (stereo not drawn) [MPHP, 4-methyl-α-pyrrolidinohexanophenone] | no monoamine efflux was observed
3 | Cc1ccc(C(=O)C(C)N2CCCC2)cc1 (stereo not drawn) [4-MePPP, 4-methyl-α-pyrrolidinopropiophenone] | no monoamine efflux was observed
4 | CCCCC(C(=O)c1ccccc1)N1CCCC1 (stereo not drawn) [α-PHP, α-pyrrolidinohexanophenone] | did not induce any monoamine efflux
5 | CCCCC(NCC)C(=O)c1ccccc1 (stereo not drawn) [NEH, N-ethylamine-hexanophenone] | did not produce any monoamine efflux; also recorded: did not induce any monoamine efflux
6 | CC(C(=O)c1ccccc1)N1CCCC1 (stereo not drawn) [α-PPP, α-pyrrolidinopropiophenone] | did not induce any monoamine efflux
